Columns and labels:
[1] = system: obese individuals with NASH; settings: treated for 4-12 weeks; no reported change in body mass index; cited from earlier work
[2] = system: New Zealand white rabbits fed a high-fat diet (HFD); experiment: Pilot study: 7-day intraperitoneal cysteamine in rabbits fed a high-fat diet (NAFLD model); type: in vivo, rabbit; settings: for mean LDL-cholesterol value: control HFD 272.5 mg/dL; for mean total cholesterol value: control HFD 842 mg/dL; for mean LDH value: control HFD 190 U/L; for increase in LDL-cholesterol compared to baseline values: control HFD about 29-fold; for increase in total cholesterol over baseline value: control HFD approximately 20-fold; for decrease in LDH compared to baseline values: control HFD increased 1.7-fold
Description: (§1) J. Pathol., 170(3):967-980 (2007). Male New Zealand white rabbits were fed a high-fat diet (HFD) containing 20% corn oil and 1.25% cholesterol in order to induce clinical and histological features characteristic of NAFLD and non-alcoholic steatohepatitis (NASH).
Endpoints included daily standard clinical observations, quantitative daily food consumption, body weights on Study Day (SD) −1, 2, 5, and 8 (day of necropsy), and blood samples collected on SD-1 and SD8 for the evaluation of selected clinical chemistries (alanine aminotransferase (ALT), aspartate aminotransferase (AST), amylase, lipase, total cholesterol, triglycerides, lactate dehydrogenase (LDH), high density lipoprotein cholesterol (HDL-cholesterol), and low density lipoprotein cholesterol (LDL-cholesterol)) and a full hematology panel. Animals were sacrificed on SD8.

[3] = system: New Zealand white rabbits fed a high fat diet (HFD); experiment: 8-week study: cysteamine in drinking water in rabbits fed a high-fat diet (NAFLD/NASH model); type: in vivo; settings: for mean AST value: control HFD 117.1 U/L
Description: as §1
The study design included five groups of eight rabbits.
Observations during the study included twice weekly body weights, daily food and water consumption, and daily clinical observations. Blood samples were collected prior to the start of the study, and on weeks 2, 6, and 8 for a full panel of hematology parameters and a selected panel of serum chemistries, including ALT, AST, amylase, lipase, total cholesterol, triglycerides, LDH, HDL-cholesterol, and LDL-cholesterol.

[4] = system: intracellular cystine (circulating white blood cells); settings: taken regularly; measured in circulating white blood cells; cited from earlier work
leukocyte cystine = settings: cited from earlier work
[5] = system: obese children who had steatosis; settings: vitamin E 400-1000 IU/day for 4-10 months, cited from earlier work
[6] = week 8, 250 mg/kg/day in drinking water
[7] = delivery of cysteamine to the small intestine

For `CC(=O)N[C@@H](CS)C(=O)O` [N-acetylcysteine], the “aminotransferase levels and gamma-GT” value [1] is listed as “improvement”.
In the case of `NCCS` [cysteamine], the “LDH as % of the control HFD values on SD8” value ([2]; 75 mg/kg/day IP Q8H) was 33%, the “LDH as % of the control HFD values on SD8” value ([2]; 250 mg/kg/day IP Q8H) was 59% and the “LDL-cholesterol: % less of an increase than the HFD controls” value ([2]; SD8, 75 mg/kg/day IP Q8H) was 23%. For the same molecule, the “total cholesterol: % less of an increase than the HFD controls” value ([2]; SD8, 75 mg/kg/day IP Q8H) was 23%, the “mean LDL-cholesterol value” ([2]; SD8, 75 mg/kg/day IP Q8H) was 210 mg/dL and the “mean total cholesterol value” ([2]; SD8, 75 mg/kg/day IP Q8H) was 652 mg/dL. For the same molecule, the “mean LDH value” ([2]; SD8, 75 mg/kg/day IP Q8H) was 128 U/L, the “increase in LDL-cholesterol compared to baseline values” ([2]; SD8, 75 mg/kg/day IP Q8H) was “about 12 fold” and the “increase in total cholesterol over baseline value” ([2]; SD8, 75 mg/kg/day IP Q8H) was roughly 12 fold. The “decrease in LDH compared to baseline values” ([2]; SD8, 75 mg/kg/day IP Q8H) was 1.2 fold, the “LDL-cholesterol: % less of an increase than the HFD controls” value ([2]; SD8, 250 mg/kg/day IP Q8H) was 45% and the “decrease in mean AST value vs control HFD group” value ([2]; SD8, 250 mg/kg/day IP Q8H) was 1.9 fold. The “mean AST as % of the control HFD value” ([2]; SD8, 250 mg/kg/day IP Q8H) was 47%, the “total cholesterol: % less of an increase than the HFD control values” ([2]; SD8, 250 mg/kg/day IP Q8H) was 59% and the “mean LDL-cholesterol value” ([2]; SD8, 250 mg/kg/day IP Q8H) was 150.5 mg/dL. The “mean total cholesterol value” ([2]; SD8, 250 mg/kg/day IP Q8H) was 347 mg/dL, the “mean LDH value” ([2]; SD8, 250 mg/kg/day IP Q8H) was 77.5 U/L and the “increase in LDL-cholesterol compared to baseline values” ([2]; SD8, 250 mg/kg/day IP Q8H) was “about 14 fold”. For the same molecule, the “increase in total cholesterol over baseline value” ([2]; SD8, 250 mg/kg/day IP Q8H) was roughly 7.5 fold, the “mean AST value” ([2]; SD8, 250 mg/kg/day IP Q8H, control HFD group 19.0 U/L) was 10.0 U/L and the “decrease in LDH compared to baseline values” ([2]; SD8, 250 mg/kg/day IP Q8H) was 3.1 fold. For the same molecule, the body weights ([3]; cysteamine treated animals vs control HFD animals) was “parallel those of the control HFD animals”, the “animals that died on study or were sacrificed moribund” value ([3]; rabbit, in vivo, 75 mg/kg/day) was “Three” and the animals sacrificed moribund ([3]; rabbit, in vivo, 250 mg/kg/day) was “One”. The “AST levels reduced compared to the HFD diet control animals” value ([3]; summary of both rabbit studies) was 1.6- to 1.9 fold, the “reductions of AST compared to the HFD diet control animals” value ([3]; summary of both rabbit studies) was 37 to 47% and the “mean AST value” ([3]; week 8, 25 mg/kg/day in drinking water) was 62.5 U/L. The “increase in HDL-cholesterol over the HFD control mean value” [3, 6] was 1.6 fold, the “increase in HDL-cholesterol over the control standard diet value” [3, 6] was 3.7 fold and the “mean HDL-cholesterol value” ([3]; week 8, 250 mg/kg/day in drinking water, HFD control 36.9, standard diet 15.7 mg/dL) was 58.3 mg/dL. The “mean LDH value” ([3]; week 8, 250 mg/kg/day in drinking water, HFD control 375 U/L, standard diet control 125.6 U/L) was 140 U/L, the “mean AST value” [3, 6] was 75.7 U/L and the “change in LDH values compared to the Group 2 HFD controls” value ([3]; week 8, all three dose levels (25, 75, 250 mg/kg/day) in drinking water) was “decrease in LDH values at all three dose levels”. For the same molecule, the “depletion of intracellular cystine” value [4] was “up to 90%”, the “time to observed decrease in leukocyte cystine” value (leukocyte cystine; delivery into the small intestine) was “within an hour” and the AUC (leukocyte cystine; [7]) was “increases”. For the same molecule, the Cmax (leukocyte cystine; [7]) was “increases”.
For vitamin E, the “mean AST levels after treatment” value ([5]; decreased from 104±61 IU/L, P<0.002) is listed as 33±11 IU/L and the “mean ALT levels after treatment” value ([5]; decreased from 175±106 IU/L, P<0.01) is listed as 40±26 IU/L.

Reference: US10307386B2 (priority 2007, dated 2019)
